The structures appear in SMILES notation.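 Growth conditions: 96-well plates. Treatment: test compound, 48 hours, 5 concentrations. Analysis: linear interpolation between bracketing concentrations; unreached endpoints set to highest concentration. GI50 is the concentration that inhibits growth by half.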 The source made the active and inactive calls. Rule as the data show it: active = GI50 up to about 1.1 µM and inactive = higher. Some results are limits rather than exact numbers.

Among the test systems are UACC-62; NCI-H226; HOP-92; M14; MDA-MB-231; UACC-257; NCI-H23; CCRF-CEM; SF-268; DU-145; K562; SK-MEL-2; OVCAR-4; SNB-19; RXF 393; SW-620; HCT-15; SK-MEL-28; NCI-H460; A498.
What all share (test): NCI anticancer screen, dose series, 48 h

`Cc1ccc(/C=N/Nc2cc(C)c3cccc(C)c3n2)s1`: the GI50 in the test on UACC-62 was 17.9 µM (inactive); with NCI-H226 it was 9.02 µM (inactive); in the test with HOP-92 it was 6.4 µM (inactive); in the test on M14, 4.33 µM (inactive); in the test on MDA-MB-231, > 10 µM (inactive); in the test on UACC-257, 18.7 µM (inactive). Also, the GI50 with NCI-H23 was 12.2 µM (inactive); in the test on CCRF-CEM, 4.43 µM (inactive); in the test on SF-268 it was 6.73 µM (inactive); in the test on DU-145, 10.5 µM (inactive); with K562, 3.46 µM (inactive); in the test on SK-MEL-2 it was 16 µM (inactive). Also, the GI50 is 13.9 µM (inactive) in the test with OVCAR-4; 26.5 µM (inactive) in the test with SNB-19; 9.86 µM (inactive) with RXF 393; 8.15 µM (inactive) in the test on SW-620; 3.73 µM in the test on HCT-15; 22.3 µM (inactive) in the test on SK-MEL-28.

With `[O-][S+](Cc1ccccc1)c1ccccc1Cn1cccc1` (centres undefined), the GI50 is 71.6 µM (inactive) in the test on UACC-62; 96.6 µM (inactive) in the test with HOP-92; > 100 µM (inactive) with M14; > 100 µM (inactive) in the test with MDA-MB-231; > 100 µM (inactive) in the test on UACC-257; > 100 µM (inactive) in the test on NCI-H23. Also, the GI50 was > 100 µM (inactive) in the test on CCRF-CEM; > 100 µM (inactive) in the test with SF-268; > 100 µM (inactive) in the test on DU-145; 71.1 µM (inactive) in the test on K562; > 100 µM (inactive) in the test on SK-MEL-2; 41.9 µM (inactive) with OVCAR-4. Moreover, the GI50 in the test with NCI-H460 was > 100 µM (inactive); in the test with SNB-19, > 100 µM (inactive); in the test on RXF 393 it was 42.8 µM (inactive); in the test with SW-620, > 100 µM (inactive); in the test on HCT-15 it was more than 100 µM; in the test on SK-MEL-28 it was > 100 µM (inactive).

In the case of `O=C1N[C@H](C(=O)O)[C@@H](c2ccc(OCc3ccccc3)cc2)O1`, the GI50 is 67.5 µM (inactive) with UACC-62; 24.9 µM (inactive) in the test with NCI-H226; > 100 µM (inactive) in the test with M14; 23.2 µM (inactive) in the test on MDA-MB-231; > 100 µM (inactive) in the test with UACC-257; 40.4 µM (inactive) with NCI-H23. Also, the GI50 in the test with CCRF-CEM is > 100 µM (inactive); in the test on SF-268 it was 25.4 µM (inactive); in the test on DU-145, 35.5 µM (inactive); in the test with K562, > 100 µM (inactive); with SK-MEL-2, 26.2 µM (inactive); in the test on OVCAR-4 it was 29.7 µM (inactive). Besides, the GI50 with SNB-19 is 17.7 µM (inactive); in the test with RXF 393, 12.9 µM (inactive); in the test on SW-620, > 100 µM (inactive); in the test with HCT-15 it was 41.8 µM; in the test on SK-MEL-28 it was > 100 µM (inactive).

With `CCCC(=O)OC1C(CO)OC(n2cc(F)c(=O)[nH]c2=O)C1F` (centres undefined), the GI50 in the test with UACC-62 is 24.1 µM (inactive); in the test on NCI-H226, > 100 µM (inactive); in the test with HOP-92, > 100 µM (inactive); in the test on UACC-257, > 100 µM (inactive); with NCI-H23, > 100 µM (inactive); in the test with CCRF-CEM it was 3.91 µM (inactive). For the same molecule, the GI50 in the test with DU-145 was 17.3 µM (inactive); with SK-MEL-2 it was > 100 µM (inactive); in the test with OVCAR-4 it was 60.5 µM (inactive); with A498, 5.68 µM (inactive); with RXF 393, > 100 µM (inactive); in the test with SW-620 it was > 100 µM (inactive). Further, the GI50 was more than 100 µM in the test with HCT-15 and > 100 µM (inactive) with SK-MEL-28.

Consider `Cc1ccc(NC(=O)c2cc(S(=O)(=O)Nc3n[nH]c(=O)[nH]3)c(SSc3cc(Cl)c(C(=O)Nc4ccc(C)cc4)cc3S(=O)(=O)Nc3n[nH]c(=O)[nH]3)cc2Cl)cc1`, for which the GI50 is 0.838 µM (active) in the test with UACC-62; > 100 µM (inactive) in the test on NCI-H226; > 100 µM (inactive) with HOP-92; > 100 µM (inactive) in the test with M14; > 100 µM (inactive) in the test with MDA-MB-231; > 100 µM (inactive) in the test with UACC-257. The GI50 with NCI-H23, in the test on CCRF-CEM, in the test on SF-268, in the test on K562, in the test with SK-MEL-2 and with OVCAR-4 was > 100 µM (inactive) throughout. Also, the GI50 with NCI-H460 was > 100 µM (inactive); with SNB-19, > 100 µM (inactive); in the test on A498, > 100 µM (inactive); in the test with SW-620, > 100 µM (inactive); in the test on HCT-15, more than 100 µM; in the test on SK-MEL-28, > 100 µM (inactive).

Turning to `O=C(O)C1(C(=O)O)CC1(C(=O)O)C(=O)O`, the GI50 in the test on UACC-62, in the test with NCI-H226, in the test on M14, in the test on MDA-MB-231, in the test with UACC-257 and with NCI-H23 was > 100 µM (inactive) throughout. Besides, the GI50 in the test with CCRF-CEM, with SF-268, in the test with DU-145, in the test on K562, in the test on SK-MEL-2 and in the test with OVCAR-4 was > 100 µM (inactive) throughout. Moreover, the GI50 was > 100 µM (inactive) in the test with NCI-H460; > 100 µM (inactive) in the test on SNB-19; 32.6 µM (inactive) with RXF 393; > 100 µM (inactive) in the test on SW-620; more than 100 µM with HCT-15; > 100 µM (inactive) in the test on SK-MEL-28.

For the molecule `Cc1c(NC(=O)CCCl)c(=O)oc2c(C)c3occc(=O)c3cc12`, the GI50 is 28.9 µM (inactive) with HOP-92; 50.8 µM (inactive) in the test with M14; 60.1 µM (inactive) with UACC-257; 94.4 µM (inactive) with NCI-H23; 30.9 µM (inactive) with CCRF-CEM; > 100 µM (inactive) in the test on SF-268. Moreover, the GI50 is > 100 µM (inactive) in the test on DU-145; 66.4 µM (inactive) in the test on K562; > 100 µM (inactive) in the test on OVCAR-4; 51.2 µM (inactive) in the test on NCI-H460; 75.5 µM (inactive) in the test on SNB-19; 19.7 µM (inactive) in the test with A498. Moreover, the GI50 is 33.5 µM (inactive) in the test with RXF 393, 87.7 µM (inactive) in the test on SW-620, 62.4 µM in the test on HCT-15 and 53 µM (inactive) in the test with SK-MEL-28.

In the case of `COc1ccc2c(c1O)[C@@]13C=C(O)C(=O)C=C1[C@@H](C2)N(C)CC3`, the GI50 in the test with UACC-62 was > 100 µM (inactive); in the test on NCI-H226 it was 56.9 µM (inactive); in the test with HOP-92, 53.2 µM (inactive); in the test on M14 it was 62.2 µM (inactive); in the test on MDA-MB-231, > 100 µM (inactive); with UACC-257, 43 µM (inactive). Also, the GI50 in the test with NCI-H23 was 57.4 µM (inactive); in the test on CCRF-CEM, 43.8 µM (inactive); in the test on SF-268 it was 28.6 µM (inactive); in the test on DU-145, 56.9 µM (inactive); with K562, > 100 µM (inactive); in the test on SK-MEL-2, 47.9 µM (inactive). In addition, the GI50 with OVCAR-4 is 62.4 µM (inactive); with NCI-H460, 63.4 µM (inactive); with SNB-19 it was 63.1 µM (inactive); in the test on RXF 393 it was 48.1 µM (inactive); in the test with HCT-15 it was 68.7 µM; with SK-MEL-28, 87.7 µM (inactive).

As for `CSC1=C(C#N)C(=O)N(c2ccc(C)cc2)C(=S)C1C#N` (centres undefined), the GI50 in the test with UACC-62 was > 100 µM (inactive); with NCI-H226, > 100 µM (inactive); in the test on HOP-92, 33.4 µM (inactive); with M14 it was > 100 µM (inactive); in the test on MDA-MB-231 it was > 100 µM (inactive); with UACC-257 it was > 100 µM (inactive). Besides, the GI50 with CCRF-CEM, with SF-268, with K562, in the test on SK-MEL-2, in the test on OVCAR-4 and with NCI-H460 was > 100 µM (inactive) in each case. The GI50 was > 100 µM (inactive) in the test on SNB-19; > 100 µM (inactive) with A498; > 100 µM (inactive) with RXF 393; > 100 µM (inactive) in the test with SW-620; more than 100 µM with HCT-15; > 100 µM (inactive) in the test on SK-MEL-28.

In the case of `O=c1oc2ccc(Cl)cc2cc1-c1cn2ccccc2n1`, the GI50 with UACC-62 is 13 µM (inactive); with NCI-H226, 20.9 µM (inactive); with HOP-92, 21.9 µM (inactive); in the test with M14, > 66.7 µM (inactive); with MDA-MB-231 it was 8.97 µM (inactive); in the test with UACC-257 it was > 94.4 µM (inactive). Further, the GI50 in the test with NCI-H23 is 15.7 µM (inactive); in the test with CCRF-CEM, > 81.3 µM (inactive); in the test on SF-268, > 39.8 µM (inactive); in the test on DU-145, > 61.9 µM (inactive); in the test on K562 it was > 100 µM (inactive); in the test on SK-MEL-2, > 96.6 µM (inactive). Besides, the GI50 was 13.7 µM (inactive) in the test on OVCAR-4; 14.6 µM (inactive) in the test with NCI-H460; 13.7 µM (inactive) in the test with RXF 393; 85.5 µM (inactive) with SW-620; more than 100 µM in the test on HCT-15; 96.8 µM (inactive) in the test with SK-MEL-28.

Turning to `CC1C/C(=N\N(C)C)C(C#N)(C#N)C1(C#N)C#N` (centres undefined), the GI50 in the test on UACC-62 is 13.8 µM (inactive); in the test with NCI-H226, 30.2 µM (inactive); in the test with HOP-92, 4.63 µM (inactive); in the test with M14, 12.2 µM (inactive); in the test on MDA-MB-231, 0.583 µM (active); with UACC-257 it was 13.2 µM (inactive). For the same molecule, the GI50 in the test with NCI-H23 is 20.5 µM (inactive); with CCRF-CEM it was 0.91 µM (active); in the test on SF-268, 15.6 µM (inactive); in the test on DU-145, 18.2 µM (inactive); in the test with K562, 2.35 µM (inactive); with SK-MEL-2 it was 22.2 µM (inactive). Moreover, the GI50 is 12.6 µM (inactive) in the test with OVCAR-4; 31.7 µM (inactive) in the test on SNB-19; 9.89 µM (inactive) with RXF 393; 5.05 µM (inactive) with SW-620; 4.81 µM in the test on HCT-15; 16 µM (inactive) with SK-MEL-28.

`CN(C)CC1CCC(CN(C)C)C1=O` (centres undefined): the GI50 in the test on UACC-62 is 13.9 µM (inactive); in the test on NCI-H226 it was 19.7 µM (inactive); with HOP-92 it was 2.24 µM (inactive); in the test on M14, 2.91 µM (inactive); in the test on MDA-MB-231 it was 2.07 µM (inactive); in the test on UACC-257, 8.34 µM (inactive). In addition, the GI50 in the test on NCI-H23 is 4.05 µM (inactive); in the test on SF-268, 19.5 µM (inactive); in the test on K562, 0.418 µM (active); in the test on SK-MEL-2, 14.1 µM (inactive); with OVCAR-4, 5.32 µM (inactive); in the test on NCI-H460, 20.8 µM (inactive). The GI50 is > 100 µM (inactive) in the test with SNB-19; 25.4 µM (inactive) with A498; 4.19 µM (inactive) in the test on RXF 393; 0.873 µM (active) with SW-620; 1.43 µM in the test with HCT-15; 8.65 µM (inactive) with SK-MEL-28.

These data come from ChEMBL document CHEMBL1201862, “PubChem BioAssay data set” (2004).
